Experimental data: patent EP2077855B1, “THERAPEUTIC USE OF GBA2” (Yildiz, Dr. med., Yildiz, priority 2006, dated 2008)
Values belong to the molecule of their own block, whether it stands above or below them.

How the values were obtained:
[1] = system: bile acid β-glucosidase activity of GBA2; experiment: Bile acid β-glucosidase activity, liver microsomal enzyme from wild type mouse; format: biochemical
GBA2 = experiment: Summary statement on the screening for GBA2 antagonists; format: biochemical; conditions: summary of Example 22
[2] = biological target: T1, bile acid β-glucosidase activity of GBA2 (Mus musculus, UniProt Q69ZF3); experiment: Bile acid β-glucosidase activity, murine enzyme expressed in COS-7-cells; format: biochemical; conditions: read-out: β-Glucosidase activity % of control
T1 construct: expressed in transfected cells; host or cells: COS-7
T1 sequence (Q69ZF3 1-918): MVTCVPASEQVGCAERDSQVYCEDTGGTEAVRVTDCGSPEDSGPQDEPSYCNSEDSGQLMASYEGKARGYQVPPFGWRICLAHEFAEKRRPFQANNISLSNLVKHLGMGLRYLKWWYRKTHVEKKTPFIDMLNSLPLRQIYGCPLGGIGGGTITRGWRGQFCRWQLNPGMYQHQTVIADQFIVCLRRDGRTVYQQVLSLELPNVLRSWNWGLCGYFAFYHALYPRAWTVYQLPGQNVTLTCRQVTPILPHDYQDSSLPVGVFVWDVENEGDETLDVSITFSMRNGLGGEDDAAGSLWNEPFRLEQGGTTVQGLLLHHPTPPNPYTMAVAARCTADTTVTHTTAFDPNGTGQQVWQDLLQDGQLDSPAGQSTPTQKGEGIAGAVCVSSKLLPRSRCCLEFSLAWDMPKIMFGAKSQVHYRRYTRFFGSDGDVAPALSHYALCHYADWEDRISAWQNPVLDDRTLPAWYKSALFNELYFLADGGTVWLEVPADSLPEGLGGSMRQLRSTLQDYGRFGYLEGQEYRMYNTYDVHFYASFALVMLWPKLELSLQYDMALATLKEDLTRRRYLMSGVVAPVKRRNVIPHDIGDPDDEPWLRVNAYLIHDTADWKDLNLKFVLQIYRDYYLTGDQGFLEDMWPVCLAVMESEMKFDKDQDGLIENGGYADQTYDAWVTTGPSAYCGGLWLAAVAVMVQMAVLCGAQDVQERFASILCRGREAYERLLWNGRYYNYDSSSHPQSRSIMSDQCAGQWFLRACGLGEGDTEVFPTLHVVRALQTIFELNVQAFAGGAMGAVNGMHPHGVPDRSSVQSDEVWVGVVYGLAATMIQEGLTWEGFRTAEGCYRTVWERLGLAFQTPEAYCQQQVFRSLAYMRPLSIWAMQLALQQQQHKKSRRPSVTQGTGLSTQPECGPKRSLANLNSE

[3] = biological target: T2, bile acid glucosyltransferase activity of GBA2 (Homo sapiens, UniProt Q9HCG7); experiment: Bile acid glucosyltransferase activity, human enzyme expressed in COS-7-cells; format: biochemical; conditions: read-out: Transferase activity % of control
T2 construct: expressed in transfected cells; host or cells: COS-7
T2 sequence (Q9HCG7 1-927): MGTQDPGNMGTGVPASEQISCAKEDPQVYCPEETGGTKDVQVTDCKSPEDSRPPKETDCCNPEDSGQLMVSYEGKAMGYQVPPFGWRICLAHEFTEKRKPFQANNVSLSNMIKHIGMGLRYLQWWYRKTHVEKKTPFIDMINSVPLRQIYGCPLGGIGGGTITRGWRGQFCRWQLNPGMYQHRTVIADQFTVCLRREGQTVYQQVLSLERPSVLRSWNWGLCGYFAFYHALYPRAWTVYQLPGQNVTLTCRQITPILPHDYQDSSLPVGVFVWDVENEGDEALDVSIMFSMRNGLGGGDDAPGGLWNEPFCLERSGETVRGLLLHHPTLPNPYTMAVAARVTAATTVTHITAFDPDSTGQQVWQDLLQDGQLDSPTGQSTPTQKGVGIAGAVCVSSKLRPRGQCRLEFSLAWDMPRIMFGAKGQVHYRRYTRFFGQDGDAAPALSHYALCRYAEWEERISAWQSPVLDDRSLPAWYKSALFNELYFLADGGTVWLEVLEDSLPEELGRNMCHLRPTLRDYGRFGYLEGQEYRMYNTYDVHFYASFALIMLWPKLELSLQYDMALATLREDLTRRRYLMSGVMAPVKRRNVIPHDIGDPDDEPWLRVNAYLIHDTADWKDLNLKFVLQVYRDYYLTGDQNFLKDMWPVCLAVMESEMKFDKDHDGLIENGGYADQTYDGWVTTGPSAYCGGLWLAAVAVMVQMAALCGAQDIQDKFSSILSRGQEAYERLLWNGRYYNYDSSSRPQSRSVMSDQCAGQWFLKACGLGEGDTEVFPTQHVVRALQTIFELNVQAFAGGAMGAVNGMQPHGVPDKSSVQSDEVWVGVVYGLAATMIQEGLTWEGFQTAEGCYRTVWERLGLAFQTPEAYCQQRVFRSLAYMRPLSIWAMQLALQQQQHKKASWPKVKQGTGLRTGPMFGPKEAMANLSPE

[4] = biological target: T3, bile acid glucosyltransferase activity of GBA2 (Mus musculus, UniProt Q69ZF3); experiment: Bile acid glucosyltransferase activity, murine enzyme expressed in COS-7-cells; format: biochemical; parameters: expressed in transfected cells; host or cells: COS-7; conditions: read-out: Transferase activity % of control
T3 sequence (Q69ZF3 1-918): T1 sequence (Q69ZF3 1-918)

[5] = biological target: T4, bile acid β-glucosidase activity of GBA2 (Homo sapiens, UniProt Q9HCG7); experiment: Bile acid β-glucosidase activity, human enzyme expressed in COS-7-cells; format: biochemical; conditions: read-out: β-Glucosidase activity % of control
T4 construct: expressed in transfected cells; host or cells: COS-7
T4 sequence (Q9HCG7 1-927): T2 sequence (Q9HCG7 1-927)

[6] = biological target: T3, bile acid glucosyltransferase activity of GBA2; experiment: Bile acid glucosyltransferase activity, liver microsomal enzyme from wild type mouse; format: biochemical; parameters: from tissue; host or cells: mouse liver microsomes (wild type); conditions: read-out: Transferase activity % of control
[7] = system: liver microsomal β-glucosidase activity from GBA2 (-/-) mice; experiment: Liver microsomal β-glucosidase activity from GBA2 (-/-) mice; format: biochemical; conditions: liver microsomes from GBA2 (-/-) mice
mice = conditions: administration to mice; cited from earlier work
rodents = conditions: administered to rodents; cited from earlier work

SMILES: CCCCCCCCCCCCN1C[C@H](O)[C@@H](O)[C@H](O)[C@H]1CO [Dodecyl-dNM, dodecyldeoxynojirimycin]
β-Glucosidase activity % of control ([1]; 0.001 µM): 51.9%
inhibitory effect on β-glucosidase and transferase activity (especially on GBA2) (GBA2): considerable inhibitory effect
remaining activity at 0.0001 µM ([2]; 0.0001 µM): 59.5%
remaining activity at 0.002 µM ([3]; 0.002 µM): 50.7%
remaining activity at 0.001 µM ([4]; 0.001 µM): 47.3%
remaining activity at 0.0002 µM [5]: 49.3%
remaining activity at 0.0006 µM ([6]; 0.0006 µM): 49.4%
β-Glucosidase activity % of control ([7]; 0.2 µM): 57.8%

SMILES: OC[C@H]1NC[C@H](O)[C@@H](O)[C@@H]1O [1-Deoxynojirimycin]
male infertility and globozoospermia (mice): causes male infertility and globozoospermia

SMILES: CCCCN1C[C@H](O)[C@@H](O)[C@H](O)[C@H]1CO [Butyl-dNM, N-butyldeoxynojirimycin]
globozoospermia (rodents): causes globozoospermia

β-Glucosidase activity % of control ([1]; 50 µM): 46.9%
remaining activity at 1000 µM ([2]; 1000 µM): 44.9%
remaining activity at 2000 µM ([3]; 2000 µM): 64.6%
remaining activity at 2000 µM ([4]; 2000 µM): 48.6%
remaining activity at 1000 µM ([5]; 1000 µM, human enzyme expressed in COS-7-cells): 55.7%
remaining activity at 2000 µM ([6]; 2000 µM): 60%
β-Glucosidase activity % of control ([7]; 20 µM): 58.9%
SMILES: O[C@H]1[C@H](O)[C@@H](O)[C@@H]2O[C@@H]2[C@@H]1O (racemic) [Conduritol B epoxide, reference compound]
